PubChem BioAssay AID1845209 (Molecular Pharmacology Branch, DTP, NCI, 2023)
pIC50: −log10 of the molar value.

System: NCI-H211 tumor spheroids, viability percent test/control
Assay: Anticancer human tumor NCI-H211 cell line growth inhibition;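 further: spheroids exposed to agents for seven days before readout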
Conditions: spheroids with HUVEC and MSC; for pIC50: curve of first compound; for viability, T/C: stronger effect = lower value
Text: Multicellular complex tumor spheroid response to DNA repair inhibitors in combination with DNA-damaging drugs
This study explores the anticancer activities of DNA-damaging drugs and inhibitors of DNA damage repair, both as single agents and in combinations. Complex tumor spheroids comprised of malignant cells, endothelial cells and mesenchymal stem cells served as an in vitro model for human solid tumors. This model system incorporates physiologically relevant features and patient-derived or established malignant cell lines with clinically relevant genetic alterations from many tumor types. Twenty-six patient-derived or established malignant cell lines were evaluated representing sarcoma, melanoma, small cell lung cancer (SCLC), non-small cell lung cancer (NSCLC), as well as bladder, ovarian and pancreatic cancers. The concentration ranges selected for each drug and investigational agent were based upon clinically achievable concentrations if the clinical Cmax of the agent was known.
Compounds. The drugs and compounds olaparib (NSC753686), talazoparib (NSC767125), berzosertib (NSC777718), elimusertib (NSC800525), nedisertib (NSC802822), VX-984 (NSC792969), AZD-1390 (NSC803789), temozolomide (NSC362856), topotecan (NSC609699), trabectedin (NSC813783), staurosporine (NSC755774), and gemcitabine (NSC613327) were obtained from the National Cancer Institute (NCI) Developmental Therapeutics Program Chemical Repository. The FDA-approved anticancer drug set is available from the Developmental Therapeutics Program at https://dtp.cancer.gov/organization/dscb/obtaining/available_plates.htm. […] The stock solutions were prepared in dimethyl sulfoxide (DMSO, Sigma-Aldrich, St. Louis, MO, cat. D2650) at 400-fold the tested concentration and stored at -70 degrees C. Prior to their use, the stock solutions were diluted in fresh medium and the final DMSO concentration in the assay was 0.25% (v/v). All drugs and investigational agents were tested over a range starting from a high concentration at or near the clinical Cmax and decreasing in half-log increments. If the clinical Cmax for an agent had not been determined, the highest concentration tested was 10 microM.
Cell Lines. The patient-derived cancer cell (PDC) lines: 156681-154-R-J1-PDC, 283228-195-R-J1-PDC, 287954-098-R-J1-PDC, 292921-168-R-J2-PDC, 349418-098-R-PDC, 425362-245-T-J1-PDC, 556581-035-R-J1-PDC, and BL0293-F563-PDC were received from the NCI Patient-Derived Models Repository (PDMR, https://pdmr.cancer.gov). The established cell lines HS-SY-2 (RRID:CVCL_8719), MPNST, and SYO-1 (RRID:CVCL_7146) were obtained from the Sloan Kettering Institute. The alveolar soft parts sarcoma cell line ASPS-1 (RRID:CVCL_S738) was established at the NCI and grown from internal seed stocks. The following established cell lines were purchased from the American Type Culture Collection (ATCC, Manassas, VA): G-401 (ATCC, cat. CRL-1441, RRID:CVCL_0270), SW982 (ATCC, cat. HTB-93, RRID:CVCL_1734), VA-ES-BJ (ATCC, cat. CRL-2138, RRID:CVCL_1785), NCI-H719 (ATCC, cat. CRL-5837, RRID:CVCL_1582), NCI-H196 (ATCC, cat. CRL-5823, RRID:CVCL_1509), NCI-H841 (ATCC, cat. CRL-5845, RRID:CVCL_1595), NCI-H1618 (ATCC, cat. CRL-5879, RRID:CVCL_1480), NCI-H1876 (ATCC, cat. CRL-5902, RRID:CVCL_1503), DMS 114 (ATCC, cat. CRL-2066; RRID:CVCL_1174), NCI-H211 (ATCC, cat. CRL-5824; RRID:CVCL_1529), and SW 1271 (ATCC, cat. CRL-2177, RRID:CVCL_1716). The small cell lung cancer cell line COR-L88 was purchased from Sigma-Aldrich (cat. 92031917-1VL, RRID:CVCL_1141). The non-small cell lung cancer cell lines NCI-H226 (RRID:CVCL_1544) and NCI-H322M (RRID:CVCL_1557) were established at the NCI and grown from internal seed stocks. Pooled donor human umbilical vein endothelial cells (HUVEC, Lonza, cat. CC-2519) and human mesenchymal stem cells (hMSC, Lonza, cat. PT-2501) were purchased from Lonza (Walkersville, MD).
Cell Culture. All cells were maintained in an incubator at 37 degrees C and 5% CO2 with 95% humidity. […]

[1] = second compound 0.003 µM, first compound 0.00949 µM
[2] = second compound 0.003 µM, first compound 0.03 µM
[3] = second compound 0.003 µM, first compound 0.0949 µM
[4] = second compound 0.003 µM, first compound 0.3 µM
[5] = second compound 0.003 µM, first compound 0.949 µM
[6] = second compound 0.003 µM, first compound 3 µM
[7] = second compound 0.00949 µM, first compound 0.00949 µM
[8] = second compound 0.00949 µM, first compound 0.03 µM
[9] = second compound 0.00949 µM, first compound 0.0949 µM
[10] = second compound 0.00949 µM, first compound 0.3 µM
[11] = second compound 0.00949 µM, first compound 0.949 µM
[12] = second compound 0.00949 µM, first compound 3 µM
[13] = second compound 0.03 µM, first compound 0.00949 µM
[14] = second compound 0.03 µM, first compound 0.03 µM
[15] = second compound 0.03 µM, first compound 0.0949 µM
[16] = second compound 0.03 µM, first compound 0.3 µM
[17] = second compound 0.03 µM, first compound 0.949 µM
[18] = second compound 0.03 µM, first compound 3 µM
[19] = second compound 0.0949 µM, first compound 0.00949 µM
[20] = second compound 0.0949 µM, first compound 0.03 µM
[21] = second compound 0.0949 µM, first compound 0.0949 µM
[22] = second compound 0.0949 µM, first compound 0.3 µM
[23] = second compound 0.0949 µM, first compound 0.949 µM
[24] = second compound 0.0949 µM, first compound 3 µM
[25] = second compound 0.3 µM, first compound 0.00949 µM
[26] = second compound 0.3 µM, first compound 0.03 µM
[27] = second compound 0.3 µM, first compound 0.0949 µM
[28] = second compound 0.3 µM, first compound 0.3 µM
[29] = second compound 0.3 µM, first compound 0.949 µM
[30] = second compound 0.3 µM, first compound 3 µM

Row | SMILES | pIC50 (second compound 0.003 µM) | pIC50 (second compound 0.00949 µM) | pIC50 (second compound 0.03 µM) | pIC50 (second compound 0.0949 µM) | pIC50 (second compound 0.3 µM) | viability, T/C [3] [%] | viability, T/C [4] [%] | viability, T/C [5] [%] | viability, T/C [6] [%] | viability, T/C [9] [%] | viability, T/C [10] [%] | viability, T/C [11] [%] | viability, T/C [12] [%] | viability, T/C [15] [%] | viability, T/C [16] [%] | viability, T/C [17] [%] | viability, T/C [18] [%] | viability, T/C [21] [%] | viability, T/C [22] [%] | viability, T/C [23] [%] | other results
1 | CNCc1ccc(-c2cc(-c3nc(-c4ccc(S(=O)(=O)C(C)C)cc4)cnc3N)on2)cc1 + CC[C@@]1(O)C(=O)OCc2c1cc1n(c2=O)Cc2cc3c(CN(C)C)c(O)ccc3nc2-1 | 8.02 | > 8.02 | > 8.02 | > 8.02 | > 8.02 | 0.85 | 0.92 | 0.05 | 0.11 | 1.06 | 1.09 | 0.11 | 0.11 | 0.97 | 1.07 | 0.14 | 0.11 | 1.06 | 0.67 | 0.12 | viability, T/C [1]: 50.5%; viability, T/C [2]: 9.5%; viability, T/C [7]: 3.19%; viability, T/C [8]: 1.35%; viability, T/C [13]: 0.96%; viability, T/C [14]: 0.98%; viability, T/C [19]: 1.04%; viability, T/C [20]: 1.29%; viability, T/C [24]: 0.13%; viability, T/C [25]: 0.95%; viability, T/C [26]: 1.15%; viability, T/C [27]: 1.37%; viability, T/C [28]: 0.82%; viability, T/C [29]: 0.21%; viability, T/C [30]: 0.18%
2 | Cn1ncnc1[C@H]1c2n[nH]c(=O)c3cc(F)cc(c23)N[C@@H]1c1ccc(F)cc1 + CC[C@@]1(O)C(=O)OCc2c1cc1n(c2=O)Cc2cc3c(CN(C)C)c(O)ccc3nc2-1 | > 8.02 | > 8.02 | > 8.02 | > 8.02 | > 8.02 | 1.05 | 1.13 | 1.18 | 1.13 | 1.24 | 1.21 | 1.11 | 1.49 | 1.25 | 1.13 | 1.14 | 1.06 | 1.17 | 1.17 | 1.1 | viability, T/C [1]: 1.01%; viability, T/C [2]: 1.19%; viability, T/C [7]: 1.17%; viability, T/C [8]: 1.18%; viability, T/C [13]: 0.91%; viability, T/C [14]: 1.11%; viability, T/C [19]: 1.14%; viability, T/C [20]: 1.25%; viability, T/C [24]: 1.34%; viability, T/C [25]: 1.06%; viability, T/C [26]: 1.01%; viability, T/C [27]: 1.1%; viability, T/C [28]: 1.37%; viability, T/C [29]: 1.05%; viability, T/C [30]: 1.06%
3 | O=C(c1cc(Cc2n[nH]c(=O)c3ccccc23)ccc1F)N1CCN(C(=O)C2CC2)CC1 + CC[C@@]1(O)C(=O)OCc2c1cc1n(c2=O)Cc2cc3c(CN(C)C)c(O)ccc3nc2-1 | > 7.02 | > 7.02 | > 7.02 | > 7.02 | > 7.02 | 9.62 | 3.33 | 1.25 | 1.06 | 1.09 | 1.14 | 1.15 | 1.2 | 1.07 | 1.19 | 1.2 | 1.12 | 1.07 | 1.03 | 1.31 | viability, T/C (second compound 0.003 µM, first compound 9.49 µM): 0.76%; viability, T/C (second compound 0.003 µM, first compound 30 µM): 0.99%; viability, T/C (second compound 0.00949 µM, first compound 9.49 µM): 1.06%; viability, T/C (second compound 0.00949 µM, first compound 30 µM): 0.96%; viability, T/C (second compound 0.03 µM, first compound 9.49 µM): 0.99%; viability, T/C (second compound 0.03 µM, first compound 30 µM): 0.78%; viability, T/C [24]: 1.37%; viability, T/C (second compound 0.0949 µM, first compound 9.49 µM): 0.98%; viability, T/C (second compound 0.0949 µM, first compound 30 µM): 1.09%; viability, T/C [27]: 1.03%; viability, T/C [28]: 1.25%; viability, T/C [29]: 1%; viability, T/C [30]: 1.05%; viability, T/C (second compound 0.3 µM, first compound 9.49 µM): 1%; viability, T/C (second compound 0.3 µM, first compound 30 µM): 0.91%
